# Data published in article PMC10895678 (Journal of Medicinal Chemistry, 2024).
# Key:
# BCG pTIC6-fbpB = type: cell-based, Mycobacterium bovis BCG
# BCG pTIC6-fbpC = type: cell-based, Mycobacterium bovis BCG
# BCG pTIC6-fbpA = type: cell-based, Mycobacterium bovis BCG
# M. tuberculosis H37Rv = experiment: Mycobacterial time kill experiments (total viable counts); type: cell-based, Mycobacterium tuberculosis; details: 29 μM, by day 10, to limit of detection (100 CFU mL^–1)
# M. smegmatis = experiment: MIC determination, resazurin end point assay, M. smegmatis; type: cell-based, Mycobacterium smegmatis
# M. bovis BCG = experiment: microbe, parasite or virus in culture; type: cell-based, Mycobacterium bovis BCG
molecule,measurement,setting,value
"O=c1c2ccccc2[se]n1-c1ccccc1 [Ebselen, reference compound]",BCG pTIC6-fbpB MIC,BCG pTIC6-fbpB,90 µM
same,increase in MIC upon overexpression of FbpB,BCG pTIC6-fbpB,three-fold increase
same,BCG pTIC6-fbpC MIC,BCG pTIC6-fbpC,98 µM
same,increase in MIC upon overexpression of FbpC,BCG pTIC6-fbpC,three-fold increase
same,BCG pTIC6-fbpA MIC,BCG pTIC6-fbpA,28 µM
same,shift in MIC upon overexpression of FbpA,BCG pTIC6-fbpA,No shift in MIC
"NNC(=O)c1ccncc1 [Isoniazid, reference compound]",reduction of total viable count,M. tuberculosis H37Rv,> 4.52 ± 0.60 log10 CFU mL^–1
"(rac)-1-(((2,4-cis)-1-(2-bromobenzyl)-4-phenylazetidin-2-yl)methyl)-4-(4-(trifluoromethyl)phenyl)piperidine [BGAz-016]",MIC99,"M. smegmatis; resazurin end point assay, modified Gompertz function, three biological replicates, read-out: M. smeg. MIC99",100 µM
same,MIC50 smegmatis,M. smegmatis; supplementary MIC data file,34 µM
same,MIC99 smegmatis,M. smegmatis; supplementary MIC data file,> 100 µM
same,BCG MIC99,"M. bovis BCG; resazurin end point assay, modified Gompertz function, three biological replicates",60 µM
same,MIC50 BCG,M. bovis BCG; supplementary MIC data file,48 µM
same,MIC99 BCG,M. bovis BCG; supplementary MIC data file,60 µM
